From US20260216174A1, “TREATMENT OF ER+ BREAST CANCER COMPRISING HOMOLOGOUS RECOMBINATION DEFICIENCY USING PARG INHIBITOR” (IDEAYA BIOSCIENCES, INC., priority 2023, published 2026)

Tests used:
HCC1428 tumors = assay: Cell line derived xenograft (CDX) study with HCC1428 tumors; format: in vivo, BALB/c nude mice
Experimental: For this xenograft, supplemental estradiol benzoate injections (40 μg/20 μl/mouse) are administered subcutaneously twice a week to BALB/c nude mice, starting one week prior to cell implantation and continuing through to the end of study. After implantation, HCC1428 tumor were allocated to treatment arms once a median tumor volume of about 181 mm^3 was reached. In Table 3A the abbreviation “p.o.” refers to oral administration and the abbreviation “QD×28” refers to administration once a day for 28 days.
Tumors were measured and mice were weighed twice a week during the experimental period. The tumor volume (mm3) was estimated using the formula: TV=a×b2/2, where “a” and “b” were the long and the short diameter of a tumor, respectively. The Tumor volumes were used to calculate tumor growth inhibition (TGI, an indicator of antitumor activity) using the formula: TGI %: (1−{T/T0/Ct/C0}/1−{C0/Ct})×100 where Tt=median tumor volume of treated at time t, T0=median tumor volume of treated at time 0, Ct=median tumor volume of control at time t and C0=median tumor volume of control at time 0.
For this xenograft, supplemental estradiol benzoate injections (40 μg/20 μl/mouse) are administered subcutaneously twice a week to BALB/c nude mice, starting one week prior to cell implantation and continuing through to the end of study. After implantation, HCC1428 tumor were allocated to treatment arms once a median tumor volume of about 181 mm^3 was reached. In Table 4A the abbreviation “p.o.” refers to oral administration and the abbreviation “QD×28” refers to administration once a day for 28 days.
Tumors were measured and mice were weighed twice a week during the experimental period. The tumor volume (mm^3) was estimated using the formula: TV=a×b2/2, where “a” and “b” were the long and the short diameter of a tumor, respectively. The Tumor volumes were used to calculate tumor growth inhibition (TGI, an indicator of antitumor activity) using the formula: TGI %: (1−{T/T0/Ct/C0}/1−{C0/Ct})×100 where Tt=median tumor volume of treated at time t, T0=median tumor volume of treated at time 0, Ct=median tumor volume of control at time t and C0=median tumor volume of control at time 0. […] At 100 mg/kg QD the mean tumor volume achieved was 116 mm3, on Day 71. The tumor growth inhibition (TGI) of these treatments compared with vehicle group on Day 28 or 71 of the treatment is summarized in Table 4B (See FIG. 3).

AU565 = assay: Cellular antiproliferative response, Assay 2 (nuclear dye intensity); format: cell-based; settings: Homo sapiens, 240 h; AU565, HR mutant CHEK2, Assay 2, 10-day incubation; read-out: Log10 (IC50) (converted)
Experimental: (§1) Compound A was tested in a cell line panel. Cell lines were grown in RPMI 1640, 10% FBS, 2 mM L-alanyl-L-glutamine, 1 mM Na pyruvate, or a special medium. Cells were seeded into 384-well plates and incubated in a humidified atmosphere of 5% CO2 at 37° C. The following day, Compound A was added by serial dilution in half-log steps from the highest test concentration of 30 μM and assayed over ten concentrations. A time zero untreated cell plate was also generated. At seven days post-seeding, the growth media were replaced, and the plates were re-dosed with the test compound. After a 10-day incubation period, cells were fixed and stained with a fluorescent nuclear dye. Automated fluorescence microscopy was carried out using a Molecular Devices ImageXpress Micro XL high-content imager, and images were collected with a 4× objective. 16-bit TIFF images were acquired and analyzed with MetaXpress 5.1.0.41 software.
(§2) Cell proliferation effects of Compound A was measured using the fluorescent intensity of the incorporated nuclear dye as a percent of the control (POC), where POC=(Ix/I0)×100. Ix=nuclear intensity at concentration x and I0=average nuclear intensity of the untreated vehicle wells. Cellular IC50 was calculated using nonlinear regression to a sigmoidal single-site dose response model. Curve fitting, calculations, and report generation was performed using a custom data reduction engine and MathIQ based software (AIM).

MDA-MB-436 = assay: as above; format: cell-based; settings: Homo sapiens, 240 h; MDA-MB-436, HR mutant BRCA1, Assay 2, 10-day incubation; read-out: Log10 (IC50) (converted)
Experimental: as §1, §2

HCC1395 = assay: as above; format: cell-based; settings: Homo sapiens, 240 h; HCC1395, HR mutant BRCA1, BRCA2, Assay 2, 10-day incubation; read-out: Log10 (IC50) (converted)
Experimental: as §1, §2

CAL-51 = assay: as above; format: cell-based; settings: Homo sapiens, 240 h; CAL-51, HR mutant BRCA2, CHEK1, Assay 2, 10-day incubation; read-out: Log10 (IC50) (converted)
Experimental: as §1, §2

CAL-85-1 = assay: as above; format: cell-based; settings: Homo sapiens, 240 h; CAL-85-1, HR mutant BRCA2, Assay 2, 10-day incubation; read-out: Log10 (IC50) (converted)
Experimental: as §1, §2

HCC1599 = assay: as above; format: cell-based; settings: Homo sapiens, 240 h; HCC1599, HR mutant BRCA2, Assay 2, 10-day incubation; read-out: Log10 (IC50) (converted)
Experimental: as §1, §2

HCC1428 = assay: as above; format: cell-based; settings: Homo sapiens, 240 h; HCC1428, HR mutant BRCA2, Assay 2, 10-day incubation; read-out: Log10 (IC50) (converted)
Experimental: as §1, §2

EFM-19 = assay: as above; format: cell-based; settings: Homo sapiens, 240 h; EFM-19, HR mutant ATM, Assay 2, 10-day incubation; read-out: Log10 (IC50) (converted)
Experimental: as §1, §2

HCC1569 = assay: as above; format: cell-based; settings: Homo sapiens, 240 h; HCC1569, HR mutant BRCA2, Assay 2, 10-day incubation; read-out: Log10 (IC50) (converted)
Experimental: as §1, §2

HCC202 = assay: as above; format: cell-based; settings: 240 h; HCC202, HR mutant BRCA2, Assay 2, 10-day incubation; read-out: Log10 (IC50) (converted)
Experimental: as §1, §2

HCC1937 = assay: as above; format: cell-based; settings: Homo sapiens, 240 h; HCC1937, HR mutant BRCA1, Assay 2, 10-day incubation; read-out: Log10 (IC50) (converted)
Experimental: as §1, §2

HCC1954 = assay: as above; format: cell-based; settings: Homo sapiens, 240 h; HCC1954, HR mutant BRCA1, Assay 2, 10-day incubation; read-out: Log10 (IC50) (converted)
Experimental: as §1, §2

[1] = 30 mg/kg p.o. QD × 28, Day 28, vs vehicle

CC(C)C(=O)N1CCN(c2cc(S(=O)(=O)NC3(C#N)CC3)cc3c2cnn3-c2nnc(C(F)F)s2)C[C@H]1C [Compound B]
TGI (%) D28 (HCC1428 tumors; [1]): 81.7%
TGI (%) D28 (HCC1428 tumors; 100 mg/kg p.o. QD × 28, Day 28, vs vehicle): 89.0%
TGI (%) D28 (HCC1428 tumors; 300 mg/kg p.o. QD × 28, Day 28, vs vehicle): 94.6%
mean tumor volume (HCC1428 tumors; Compound B study, 30 mg/kg QD, Day 28): 165 mm^3
mean tumor volume (HCC1428 tumors; Compound B study, 100 mg/kg QD, Day 28): 103 mm^3
mean tumor volume (HCC1428 tumors; Compound B study, 300 mg/kg QD, Day 28): 50 mm^3

C[C@H]1CN(c2cc(S(=O)(=O)NC3(C)CC3)cc3c2cnn3-c2nnc(C(F)F)s2)C[C@H](C)N1 [Compound A, 1-(5-(difluoromethyl)-1,3,4-thiadiazol-2-yl)-4-((3S,5S)-3,5-dimethylpiperazin-1-yl)-N-(1-methylcyclopropyl)-1H-indazole-6-sulfonamide]
TGI (%) D28 or 71 (HCC1428 tumors; 3 mg/kg p.o. QD × 28, Day 28, vs vehicle): 23%
TGI (%) D28 or 71 (HCC1428 tumors; [1]): 54%
TGI (%) D28 or 71 (HCC1428 tumors; 100 mg/kg p.o. QD × 72, Day 71, vs vehicle): 103%
mean tumor volume (HCC1428 tumors; Compound A study, 3 mg/kg QD, Day 28): 836 mm^3
mean tumor volume (HCC1428 tumors; Compound A study, 30 mg/kg QD, Day 28): 570 mm^3
mean tumor volume (HCC1428 tumors; Compound A study, 100 mg/kg QD, Day 71): 116 mm3
IC50 (AU565): 52.3 nM
IC50 (MDA-MB-436): 52.4 nM
IC50 (HCC1395): 30 nM
IC50 (CAL-51): 3530 nM
IC50 (CAL-85-1): 100 nM
IC50 (HCC1599): 1310 nM
IC50 (HCC1428): 10 nM
IC50 (EFM-19): 689 nM
IC50 (HCC1569): 80 nM
IC50 (HCC202): 640 nM
IC50 (HCC1937): 220 nM
IC50 (HCC1954): 370 nM
